Results published in paper PMC8469457, “Proline-Specific Fungal Peptidases: Genomic Analysis and Identification of Secreted DPP4 in Alkaliphilic and Alkalitolerant Fungi” (Journal of Fungi, 2021).

Target: T1, DPP4 of S. alkalinus F11 (secreted DPP4, culture filtrate) (Sodiomyces alkalinus, UniProt A0A3N2PX53)
T1 construct: gene SODALDRAFT_276413; native secreted enzyme, unpurified 14-day culture filtrate; link of ROT38925.1 to the assayed activity is inferred
T1 sequence (A0A3N2PX53 27-782): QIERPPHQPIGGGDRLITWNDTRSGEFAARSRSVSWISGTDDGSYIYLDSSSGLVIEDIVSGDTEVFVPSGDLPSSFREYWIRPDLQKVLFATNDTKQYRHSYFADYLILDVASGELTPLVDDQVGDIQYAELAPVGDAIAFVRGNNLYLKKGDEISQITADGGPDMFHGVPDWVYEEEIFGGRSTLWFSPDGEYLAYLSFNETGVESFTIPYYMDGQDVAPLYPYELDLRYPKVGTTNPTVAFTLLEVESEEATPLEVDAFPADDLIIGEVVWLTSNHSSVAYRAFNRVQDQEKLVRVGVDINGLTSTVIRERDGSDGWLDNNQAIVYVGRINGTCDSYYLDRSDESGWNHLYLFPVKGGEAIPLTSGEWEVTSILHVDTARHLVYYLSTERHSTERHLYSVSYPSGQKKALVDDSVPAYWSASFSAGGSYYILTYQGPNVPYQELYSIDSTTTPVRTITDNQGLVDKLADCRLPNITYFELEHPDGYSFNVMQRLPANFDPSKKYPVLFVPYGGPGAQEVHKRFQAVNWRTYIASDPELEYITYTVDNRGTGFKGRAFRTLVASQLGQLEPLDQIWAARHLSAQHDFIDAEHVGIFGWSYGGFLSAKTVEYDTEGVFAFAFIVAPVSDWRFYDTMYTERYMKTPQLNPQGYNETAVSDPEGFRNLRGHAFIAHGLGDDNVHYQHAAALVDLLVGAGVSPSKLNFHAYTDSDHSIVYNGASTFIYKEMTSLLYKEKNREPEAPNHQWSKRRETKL
Experiment: residual hydrolysis of Ala-Pro-pNa, absorbance at […] nm, culture filtrate
Type: biochemical
Details: read-out: % residual activity at 0.25 mM

- remaining activity at 250 µM: 3.2%
SMILES: CC[C@H](C)[C@H](N)C(=O)N1CCC[C@H]1C(=O)N[C@H](C(=O)O)[C@@H](C)CC [diprotin A]
